Test results reported in the supplement of paper PMC10307832.

Columns and labels:
Assay in all cases: relative viability (nuclei count vs DMSO), 5 days (fraction); higher = more cells survive
[1] = compound: C1CN(CCN1)C2=CC=C(C=C2)C3=CN4C(=C(C=N4)C5=CC=NC6=CC=CC=C56)N=C3 [DM3189] + CCNC(=O)c1noc(-c2cc(C(C)C)c(O)cc2O)c1-c1ccc(CN2CCOCC2)cc1 [Luminespib] (partner 0.01 µM)
Procedure, shortened: (§1)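 Values are medians from duplicate plates. Each reflects relative viability, defined as the nuclei count of treated wells over that of vehicle wells. Lung cancer cell lines in 1536-well plates were pin-tool dosed one day after seeding with one drug alone or with a fixed anchor-drug dose plus five library-drug doses (not always all listed) in √10 steps, then fixed, stained and imaged at 4× after 5 days.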

[2] = compound: C1CN(CCN1)C2=CC=C(C=C2)C3=CN4C(=C(C=N4)C5=CC=NC6=CC=CC=C56)N=C3 [DM3189] + COc1cc2c(Oc3ccc(NC(=O)C4(C(=O)Nc5ccc(F)cc5)CC4)cc3F)ccnc2cc1OCCCN1CCOCC1 [Foretinib] (partner 0.25 µM)
Procedure, shortened: as §1

[3] = compound: C1CN(CCN1)C2=CC=C(C=C2)C3=CN4C(=C(C=N4)C5=CC=NC6=CC=CC=C56)N=C3 [DM3189] + COc1cccc2cc(-c3nc([C@H]4CC[C@H](C(=O)O)CC4)n4ncnc(N)c34)[nH]c12 [OSI-027] (partner 0.5 µM)
Procedure, shortened: as §1

[4] = compound: C1CN(CCN1)C2=CC=C(C=C2)C3=CN4C(=C(C=N4)C5=CC=NC6=CC=CC=C56)N=C3 [DM3189] + Cc1nc(NC(=O)N2CCC[C@H]2C(N)=O)sc1-c1ccnc(C(C)(C)C(F)(F)F)c1 [Alpelisib] (partner 2 µM)
Procedure, shortened: as §1

[5] = compound: C1CN(CCN1)C2=CC=C(C=C2)C3=CN4C(=C(C=N4)C5=CC=NC6=CC=CC=C56)N=C3 [DM3189] + Nc1ncn([C@H]2C[C@H](O)[C@@H](CO)O2)c(=O)n1 [Decitabine] (partner 2 µM)
Procedure, shortened: as §1

Cell Line | relative viability ([1]; first compound 0.08 µM) | relative viability ([1]; first compound 0.253 µM) | relative viability ([1]; first compound 0.8 µM) | relative viability ([1]; first compound 2.53 µM) | relative viability ([2]; first compound 0.08 µM) | relative viability ([2]; first compound 0.253 µM) | relative viability ([2]; first compound 0.8 µM) | relative viability ([2]; first compound 2.53 µM) | relative viability ([3]; first compound 0.08 µM) | relative viability ([3]; first compound 0.253 µM) | relative viability ([3]; first compound 0.8 µM) | relative viability ([3]; first compound 2.53 µM) | relative viability ([4]; first compound 0.08 µM) | relative viability ([4]; first compound 0.253 µM) | relative viability ([4]; first compound 0.8 µM) | relative viability ([4]; first compound 2.53 µM) | relative viability ([5]; first compound 0.08 µM) | relative viability ([5]; first compound 0.253 µM) | relative viability ([5]; first compound 0.8 µM) | relative viability ([5]; first compound 2.53 µM)
NCI-H1666 | 1.15 | 0.983 | 1.05 | 1.07 | 1.02 | 0.97 | 1.02 | 0.93 | 1.01 | 0.941 | 1.1 | 1.01 | 1.04 | 1.17 | 1.07 | 0.793 | 0.882 | 0.688 | 0.748 | 0.83
NCI-H358 | 0.463 | 0.218 | 0.251 | 0.257 | 0.733 | 0.607 | 0.714 | 0.61 | 1.02 | 0.722 | 0.782 | 0.488 | 0.851 | 0.83 | 0.779 | 0.492 | 0.226 | 0.191 | 0.217 | 0.194
201T | 1.16 | 1.01 | 1.14 | 0.941 | 1.01 | 1.03 | 0.73 | 1.27 | 0.88 | 0.763 | 0.512 | 0.747 | 1.05 | 1.02 | 1 | 1.05 | 0.831 | 0.817 | 0.828 | 0.875
RERF-LC-KJ | 1.37 | 1.3 | 1.46 | 1.19 | 1.03 | 0.904 | 0.927 | 0.97 | 0.666 | 0.59 | 0.586 | 0.601 | 0.932 | 0.829 | 0.895 | 0.937 | 0.754 | 0.615 | 0.757 | 0.618
NCI-H3122 | 0.0997 | 0.103 | 0.072 | 0.0922 | 0.98 | 0.909 | 0.735 | 0.805 | 1.16 | 0.916 | 0.909 | 1.04 | 0.656 | 0.74 | 0.701 | 0.739 | 0.362 | 0.353 | 0.372 | 0.367
LXF-289 | 0.758 | 0.583 | 0.61 | 0.805 | 0.982 | 0.963 | 0.987 | 1.02 | 1.01 | 0.747 | 0.746 | 0.891 | 1.03 | 1.03 | 1.01 | 1.14 | 0.391 | 0.389 | 0.438 | 0.421
EKVX | 0.96 | 0.874 | 0.908 | 0.962 | 0.892 | 0.82 | 0.539 | 0.803 | 0.769 | 0.511 | 0.729 | 0.623 | 0.944 | 0.77 | 0.807 | 0.869 | 0.331 | – | 0.359 | 0.363
A-427 | 1.13 | 0.89 | 0.806 | 0.745 | 1.09 | 1.23 | 1.04 | 1.22 | 0.59 | 0.377 | 0.403 | 0.461 | 1.11 | 1.04 | 1.01 | 1.09 | 0.591 | 0.546 | 0.541 | 0.618
